Among the test systems are A498 renal; COLO 205 colon; MALME-3M melanoma; MCF7 breast; NCI-H23 lung; OVCAR-3 ovarian; SF-539 CNS; SN12C renal; UACC-257 melanoma; UACC-62 melanoma.
Holding throughout (assay): NCI tumour cell line growth inhibition, 48 h

Values joined by “and” are separate entries in the source; they are usually repeats but may differ in a detail not shown here. Identical values can stand only once.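 Protocol summary: plate cells (96-well), add compound at 5 concentrations, incubate 48 h, interpolate endpoints linearly. The concentration for 50% growth inhibition is given as GI50. TGI: total growth inhibition.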

In the case of `COc1cc2c(cc1OC)C13CCN4CC5=CCOC(CC(=O)O)C(C5CC41)C3N2` (stereo not given), the TGI in the test on A498 renal, with COLO 205 colon, in the test on MALME-3M melanoma, in the test with MCF7 breast, in the test on NCI-H23 lung and in the test on OVCAR-3 ovarian was greater than 100 µM in each case. Besides, the TGI in the test on SF-539 CNS, in the test on SN12C renal, in the test with UACC-257 melanoma and with UACC-62 melanoma was greater than 100 µM in each case.

For the compound `COC1/C=C/O[C@@]2(C)Oc3c(C)c(O)c4c(O)c(cc(O)c4c3C2=O)NC(=O)/C(C)=C\C=C\[C@H](C)C(O)[C@@H](C)[C@@H](O)[C@@H](C)[C@H](OC(C)=O)[C@@H]1C` (stereo not given in full), the TGI in the test on A498 renal is 96.9 µM; in the test with COLO 205 colon, 15.5 µM and 10.6 µM; in the test on MALME-3M melanoma, 25.9 µM and 77.9 µM; in the test with MCF7 breast it was 32.3 µM and 29.7 µM; with NCI-H23 lung it was 33.8 µM; in the test with OVCAR-3 ovarian it was 15.1 µM and 22.9 µM. In addition, the TGI in the test with SF-539 CNS was 12.5 µM and 69.3 µM; in the test with SN12C renal, 24.6 µM and 33.9 µM; in the test with UACC-257 melanoma it was 32.7 µM and 32.9 µM; in the test with UACC-62 melanoma, 28 µM and 42.2 µM. Also, the GI50 in the test on COLO 205 colon is 4.25 µM; in the test with MALME-3M melanoma it was 12.8 µM; in the test with MCF7 breast it was 17.3 µM; with OVCAR-3 ovarian it was 2.6 µM and 8.56 µM; in the test with SF-539 CNS it was 3.41 µM; in the test on SN12C renal it was 11.9 µM. For the same compound, the GI50 in the test with UACC-257 melanoma is 17.5 µM; in the test on UACC-62 melanoma, 14.8 µM.

Turning to `Cc1cc(N(CCCl)CCCl)ccc1C=Nc1cccnc1`, the GI50 in the test on A498 renal is 0.237 µM; in the test on COLO 205 colon, 15.1 µM; in the test with MALME-3M melanoma, 22.4 µM; in the test on MCF7 breast it was 1.8 µM; with NCI-H23 lung it was 6.93 µM; in the test with OVCAR-3 ovarian, 5.33 µM. The GI50 in the test on SF-539 CNS is 4.81 µM; with SN12C renal it was 10.6 µM; in the test with UACC-257 melanoma, 3.7 µM; in the test with UACC-62 melanoma, 1.59 µM. The TGI is 0.833 µM with A498 renal; greater than 70.8 µM with COLO 205 colon; greater than 100 µM with MALME-3M melanoma; greater than 100 µM in the test with MCF7 breast; greater than 100 µM in the test with NCI-H23 lung; 31.7 µM in the test with OVCAR-3 ovarian. Further, the TGI was greater than 100 µM in the test on SF-539 CNS, greater than 100 µM in the test with SN12C renal, 23.2 µM in the test with UACC-257 melanoma and 16.1 µM with UACC-62 melanoma.

For the compound `Cc1c(Cl)cccc1NC(=O)CC1Sc2ccccc2NC1=O` (stereo not given), the TGI with A498 renal was 38.2 µM and 37.5 µM; in the test with COLO 205 colon it was greater than 100 µM; with MALME-3M melanoma, 50.7 µM and 47.2 µM; with MCF7 breast, greater than 87 µM; in the test on NCI-H23 lung it was 70 µM and > 100 µM; in the test on OVCAR-3 ovarian, 31.2 µM and 41.9 µM. For the same compound, the TGI in the test on SF-539 CNS was 45.1 µM and 36.2 µM; in the test on SN12C renal, 65.6 µM and > 100 µM; in the test on UACC-257 melanoma it was > 94.7 µM and 37.8 µM; with UACC-62 melanoma, 77.5 µM and > 100 µM. Further, the GI50 was 38.7 µM and 5.35 µM with UACC-257 melanoma; 15.2 µM and 38.6 µM with UACC-62 melanoma.

Consider `COc1ccccc1-c1cc2c3c(nc4ccccc42)C(=O)c2cccnc2-c3n1`, for which the GI50 was 18.9 µM with A498 renal; 20.9 µM in the test on COLO 205 colon; 15.4 µM in the test with MALME-3M melanoma; 1.44 µM with MCF7 breast; 9.06 µM in the test with NCI-H23 lung; 1.56 µM in the test on OVCAR-3 ovarian. The GI50 in the test with SF-539 CNS is 14.8 µM; in the test on SN12C renal, 14.5 µM; with UACC-257 melanoma, 7.22 µM; with UACC-62 melanoma, 16.4 µM. Moreover, the TGI was 47.4 µM in the test with A498 renal; 55.1 µM with COLO 205 colon; 28.7 µM in the test on MALME-3M melanoma; 3.95 µM in the test on MCF7 breast; 25.3 µM in the test on NCI-H23 lung; greater than 37.5 µM in the test with OVCAR-3 ovarian. In addition, the TGI came to 35.4 µM in the test with SF-539 CNS, 30.1 µM with SN12C renal, 22.8 µM in the test on UACC-257 melanoma and 36.7 µM with UACC-62 melanoma.

With `O=C1C(=O)c2ccc(Br)cc2-c2cc(Br)ccc21`, the GI50 is greater than 28.1 µM with A498 renal; greater than 100 µM in the test on COLO 205 colon; 7.74 µM in the test on MALME-3M melanoma; 2.34 µM with MCF7 breast; 2.56 µM with NCI-H23 lung; 0.619 µM in the test with OVCAR-3 ovarian. Further, the GI50 with SF-539 CNS is 8.43 µM; with SN12C renal it was 2.14 µM; in the test on UACC-257 melanoma, 1.62 µM; in the test with UACC-62 melanoma it was 15.2 µM. Besides, the TGI in the test on A498 renal was greater than 100 µM; in the test with COLO 205 colon, greater than 100 µM; with MALME-3M melanoma, greater than 52.3 µM; with MCF7 breast, 8.61 µM; in the test on NCI-H23 lung, 13.2 µM; in the test on OVCAR-3 ovarian, 1.36 µM. For the same compound, the TGI with SF-539 CNS was 26.3 µM; in the test with SN12C renal, 11.2 µM; in the test with UACC-257 melanoma, 4.19 µM; in the test with UACC-62 melanoma, greater than 64.9 µM.

For the compound `COc1ccc(C2C3=C(NC(=O)C2C#N)c2ccc4ccccc4c2OCC3)cc1` (stereo not given), the GI50 is 10.6 µM in the test with A498 renal; greater than 100 µM in the test on COLO 205 colon; 34.9 µM with MALME-3M melanoma; greater than 100 µM in the test on MCF7 breast; 87.1 µM in the test on NCI-H23 lung; 70.4 µM in the test with OVCAR-3 ovarian. The GI50 with SF-539 CNS is 12.9 µM; in the test with SN12C renal it was 23.9 µM; in the test on UACC-257 melanoma it was 36.5 µM; with UACC-62 melanoma it was 19 µM. In addition, the TGI is 64.6 µM in the test on A498 renal; greater than 100 µM in the test with COLO 205 colon; 77.3 µM with MALME-3M melanoma; greater than 100 µM in the test on MCF7 breast; greater than 100 µM in the test with NCI-H23 lung; greater than 100 µM in the test on OVCAR-3 ovarian. Further, the TGI worked out at 28 µM in the test on SF-539 CNS, 56.5 µM in the test with SN12C renal, 82.8 µM in the test with UACC-257 melanoma and 45.5 µM in the test with UACC-62 melanoma.

Regarding `COc1ccc2c(c1)O/C(=C\c1cccc(OCC(=O)Nc3nc4ccccc4s3)c1)C2=O`, the GI50 is 10.1 µM in the test on A498 renal; greater than 100 µM with COLO 205 colon; 2 µM in the test with MALME-3M melanoma; 14.2 µM in the test with MCF7 breast; 3.58 µM with NCI-H23 lung; 3.16 µM in the test on OVCAR-3 ovarian. The GI50 is 24.7 µM in the test on SF-539 CNS, 2.82 µM in the test on SN12C renal, greater than 100 µM in the test with UACC-257 melanoma and 23.5 µM in the test with UACC-62 melanoma. Besides, the TGI in the test with A498 renal was greater than 93.3 µM; with COLO 205 colon, greater than 100 µM; in the test on MALME-3M melanoma, 4.37 µM; in the test on MCF7 breast, greater than 100 µM; in the test on NCI-H23 lung it was greater than 100 µM; in the test with OVCAR-3 ovarian it was 9.56 µM. The TGI in the test on SF-539 CNS is greater than 84.5 µM; with SN12C renal, greater than 100 µM; in the test on UACC-257 melanoma it was greater than 100 µM; with UACC-62 melanoma it was greater than 100 µM.

Values taken from PubChem BioAssay (NCI).
